# Results published in patent publication US8012956B2, “Tropane compounds” (Exelixis, Inc., priority 2007, dated 2011).
# Target: HSP90 (Homo sapiens, UniProt P07900)
# Test: HSP90 inhibition (HSP90 IC50)
# Type: biochemical
row,IC50 [nM],Compound
1,< 500,"Cc1cc(C(N)=O)c(NCC2CCCC2)cc1C(=O)N[C@H]1C[C@H]2CC[C@@H](C1)N2c1ccc(C(=O)C2CC2)cn1 [5-[(cyclopentylmethyl)amino]-N-{8-[5-(cyclopropylcarbonyl)pyridin-2-yl]-8-azabicyclo[3.2.1]oct-3-endo-yl}-2-methylbenzene-1,4-dicarboxamide]"
2,2000 to 10000,"Cc1cccc(C(=O)N[C@H]2C[C@H]3CC[C@@H](C2)N3c2ccc(C(=O)NCc3ccccc3)cn2)c1C [6-(3-endo-{[(2,3-dimethylphenyl)carbonyl]amino}-8-azabicyclo[3.2.1]oct-8-yl)-N-(phenylmethyl)pyridine-3-carboxamide]"
3,2000 to 10000,Cc1cc(N)ccc1C(=O)N[C@H]1C[C@H]2CC[C@@H](C1)N2c1ccc(C(N)=O)cn1 [6-(3-endo-{[(4-amino-2-methylphenyl)carbonyl]amino}-8-azabicyclo[3.2.1]oct-8-yl)pyridine-3-carboxamide]
4,< 500,COc1cccc(C(=O)N[C@H]2C[C@H]3CC[C@@H](C2)N3c2ccc(C(=O)NCc3cccs3)cn2)c1C [6-[3-endo({[2-methyl-3-(methyloxy)phenyl]carbonyl}amino)-8-azabicyclo[3.2.1]oct-8-yl]-N-(2-thienylmethyl)pyridine-3-carboxamide]
5,< 500,COc1cccc(C(=O)N[C@H]2C[C@H]3CC[C@@H](C2)N3c2ccc(C(=O)NCc3ccc(C)cc3)cn2)c1C [6-[3-endo-({(2-methyl-3-(methyloxy)phenyl]carbonyl}amino)-8-azabicyclo[3.2.1]oct-8-yl]-N-[(4-methylphenyl)methyl]pyridine-3-carboxamide]
6,1000 to 2000,"O=C(NCc1ccccc1)c1ccc(N2[C@@H]3CC[C@H]2C[C@@H](NC(=O)c2ccc(C(O)CO)cc2)C3)nc1 (stereo partly drawn) [6-[3-endo-({(4-(1,2-dihydroxyethyl)phenyl]carbonyl}amino)-8-azabicyclo[3.2.1]oct-8-yl]-N-(phenylmethyl)pyridine-3-carboxamide]"
7,< 500,COc1cccc(C(=O)N[C@H]2C[C@H]3CC[C@@H](C2)N3c2ccc(C(=O)NCc3ccccc3)cn2)c1CCCO [6-[3-endo-({[2-(3-hydroxypropyl)-3-(methyloxy)phenyl]carbonyl}amino)-8-azabicyclo[3.2.1]oct-8-yl]-N-(phenylmethyl)pyridine-3-carboxamide]
8,500 to 999,COc1cccc(C(=O)N[C@H]2C[C@H]3CC[C@@H](C2)N3c2ccc(C(N)=O)cn2)c1CCCCO [6-[3-endo-({[2-(4-hydroxybutyl)-3-(methyloxy)phenyl]carbonyl}amino)-8-azabicyclo[3.2.1]oct-8-yl]pyridine-3-carboxamide]
9,1000 to 2000,COc1cccc(C(=O)N[C@H]2C[C@H]3CC[C@@H](C2)N3c2ccc(C(=O)NCc3ccccc3)cn2)c1Br [6-[3-endo-({[2-bromo-3-(methyloxy)phenyl]carbonyl}amino)-8-azabicyclo[3.2.1]oct-8-yl]-N-(phenylmethyl)pyridine-3-carboxamide]
10,2000 to 10000,COc1cccc(C(=O)NC2CC3CCC(C2)N3c2ccc(C(=O)NC3CCN(c4ccccc4)CC3)cn2)c1C (stereo not drawn) [6-[3-endo-({[2-methyl-3-(methyboxy)phenyl]carbonyl}amino)-8-azabicyclo[3.2.1]oct-8-yl]-N-(1-phenylpiperidin-4-yl)pyridine-3-carboxamide]
11,1000 to 2000,C#CCNC(=O)c1ccc(N2[C@@H]3CC[C@H]2C[C@@H](NC(=O)c2cccc(OC)c2C)C3)nc1 [6-[3-endo-({[2-methyl-3-(methyloxy)phenyl)carbonyl}amino)-8-azabicyclo(3.2.1]oct-8-yl]-N-prop-2-yn-1-ylpyridine-3-carboxamide]
12,1000 to 2000,COc1cccc(C(=O)N[C@H]2C[C@H]3CC[C@@H](C2)N3c2ccc(C(=O)NCC(C)C)cn2)c1C [6-[3-endo-({[2-methyl-3-(methyloxy)phenyl]carbonyl}amino)-8-azabicyclo[3.2.1]oct-8-yl]-N-(2-methylpropyl)pyridine-3-carboxamide]
13,1000 to 2000,COc1cccc(C(=O)N[C@H]2C[C@H]3CC[C@@H](C2)N3c2ccc(C(=O)NCCN3CCOCC3)cn2)c1C [6-[3-endo-({[2-methyl-3-(methyloxy)phenyl]carbonyl}amino)-8-azabicyclo[3.2.1]oct-8-yl]-N-(2-morpholin-4-ylethyl)pyridine-3-carboxamide]

# More lines, now with the values behind:
row,Compound,IC50 [nM]
1,"NC(=O)c1cc(Br)c(C(=O)N[C@H]2C[C@H]3CC[C@@H](C2)N3c2ccc(C(=O)C3CC3)cn2)cc1N [5-amino-2-bromo-N-{8-[5-(cyclopropylcarbonyl)pyridin-2-yl]-8-azabicyclo[3.2.1]oct-3-endo-yl}benzene-1,4-dicarboxamide]",< 500
2,"Cc1cc(C(N)=O)c(N)cc1C(=O)N[C@H]1C[C@H]2CC[C@@H](C1)N2c1ccc(C(=O)C2CC2)cn1 [5-amino-N-{8-[5-(cyclopropylcarbonyl)pyridin-2-yl]-8-azabicyclo[3.2.1]oct-3-endo-yl}-2-methylbenzene-1,4-dicarboxamide]",< 500
3,"CC[C@@H](C)Nc1c(C(N)=O)cc(Br)c(C(=O)NC2CC3CCC(C2)N3c2ccc(C(=O)C3CC3)cn2)c1Cl (stereo partly drawn) [5-bromo-3-chloro-N4-{8-[5-(cyclopropylcarbonyl)pyridin-2-yl]-8-azabicyclo[3.2.1]oct-3-endo-yl}-2-{[(1R)-1-methylpropyl]amino}benzene-1,4-dicarboxamide]",< 500
4,Cc1c(N)cccc1C(=O)N[C@H]1C[C@H]2CC[C@@H](C1)N2c1ccc(C(=O)NCc2ccccc2)cn1 [6-(3-endo-{[(3-amino-2-methylphenyl)carbonyl]amino}-8-azabicyclo[3.2.1]oct-8-yl)-N-(phenylmethyl)pyridine-3-carboxamide],2000 to 10000
5,Cc1c(O)cccc1C(=O)NC1CC2CCC(C1)N2c1ccc(C(=O)NCc2ccccc2)cn1 (stereo not drawn) [6-(3-endo-{[(3-hydroxy-2-methylphenyl)carbonyl]amino}-8-azabicyclo[3.2.1]oct-8-yl)-N-(phenylmethyl)pyridine-3-carboxamide],1000 to 2000
6,Cc1c(O)cccc1C(=O)NC1CC2CCC(C1)N2c1ccc(C(=O)N[C@@H](C)c2ccc(N3CCN(C)CC3)cc2)cn1 (stereo partly drawn) [6-(3-endo-{[(3-hydroxy-2-methylphenyl)carbonyl]amino}-8-azabicyclo[3.2.1]oct-8-yl)-N-{(1S)-1-[4-(4-methylpiperazin-1-yl)phenyl]ethyl}pyridine-3-carboxamide],< 500
7,COc1cccc(C(=O)N[C@H]2C[C@H]3CC[C@@H](C2)N3c2ccc(C(N)=O)cn2)c1CCCCN(C)C [6-(3-endo[({2-[4-(dimethylamino)butyl]-3-(methyloxy)phenyl}carbonyl)amino]-8-azabicyclo[3.2.1]oct-8-yl}pyridine-3-carboxamide],1000 to 2000
8,"COc1cccc(C(=O)N[C@H]2C[C@H]3CC[C@@H](C2)N3c2ccc(C(N)=O)cn2)c1CC(O)CO (stereo partly drawn) [6-[3-endo-({[2-(2,3-dihydroxypropyl)-3-(methyloxy)phenyl]carbonyl}amino)-8-azabicyclo[3.2.1]oct-8-yl]pyridine-3-carboxamide]",2000 to 10000
9,COc1cccc(C(=O)N[C@H]2C[C@H]3CC[C@@H](C2)N3c2ccc(C(N)=O)cn2)c1CCCO [6-[3-endo-({[2-(3-hydroxypropyl)-3-(methyloxy)phenyl]carbonyl}amino)-8-azabicyclo[3.2.1]oct-8-yl]pyridine-3-carboxamide],1000 to 2000
10,COc1cccc(C(=O)N[C@H]2C[C@H]3CC[C@@H](C2)N3c2ccc(C(N)=O)cn2)c1C#CCCO [6-[3-endo-({[2-(4-hydroxybut-1-yn-1-yl)-3-(methyloxy)phenyl]carbonyl}amino)-8-azabicyclo[3.2.1]oct-8-yl]pyridine-3-carboxamide],2000 to 10000
11,COc1cccc(C(=O)N[C@H]2C[C@H]3CC[C@@H](C2)N3c2ccc(C(N)=O)cn2)c1Cl [6-[3-endo-({[2-chloro-3-(methyloxy)phenyl]carbonyl}amino)-8-azabicyclo[3.2.1]oct-8-yl]pyridine-3-carboxamide],2000 to 10000
12,COc1cccc(C(=O)N[C@H]2C[C@H]3CC[C@@H](C2)N3c2ccc(C(N)=O)cn2)c1F [6-[3-endo-({[2-fluoro-3-(methyloxy)phenyl]carbonyl}amino)-8-azabicyclo[3.2.1]oct-8-yl]pyridine-3-carboxamide],2000 to 10000
13,COc1cccc(C(=O)N[C@H]2C[C@H]3CC[C@@H](C2)N3c2ccc(C(=O)NCc3ccccc3)cn2)c1I [6-[3-endo-({[2-iodo-3-(methyloxy)phenyl]carbonyl}amino)-8-azabicyclo[3.2.1]oct-8-yl]-N-(phenylmethyl)pyridine-3-carboxamide],2000 to 10000
14,"COc1ccc(C(=O)N[C@H]2C[C@H]3CC[C@@H](C2)N3c2ccc(C(=O)NCc3ccccc3)cn2)c(C)c1OC [6-[3-endo-({[2-methyl-3,4-bis(methyloxy)phenyl]carbonyl}amino)-8-azabicyclo[3.2.1]oct-8-yl]-N-(phenylmethyl)pyridine-3-carboxamide]",2000 to 10000
15,CNc1cccc(C(=O)NC2CC3CCC(C2)N3c2ccc(C(=O)N[C@@H](C)c3ccc(N4CCN(C)CC4)cc3)cn2)c1C (stereo partly drawn) [6-[3-endo-({[2-methyl-3-(methylamino)phenyl]carbonyl}amino)-8-azabicyclo[3.2.1]oct-8-yl]-N-{(1S)-1-[4-(4-methylpiperazin-1-yl)phenyl]ethyl}pyridine-3-carboxamide],< 500
16,COc1cccc(C(=O)N[C@H]2C[C@H]3CC[C@@H](C2)N3c2ccc(C(=O)NC3CCN(C)CC3)cn2)c1C [6-[3-endo-({[2-methyl-3-(methyloxy)phenyl]carbonyl}amino)-8-azabicyclo[3.2.1]oct-8-yl]-N-(1-methylpiperidin-4-yl)pyridine-3-carboxamide],500 to 999
17,COc1cccc(C(=O)N[C@H]2C[C@H]3CC[C@@H](C2)N3c2ccc(C(=O)Nc3ccccc3C)cn2)c1C [6-[3-endo-({[2-methyl-3-(methyloxy)phenyl]carbonyl}amino)-8-azabicyclo[3.2.1]oct-8-yl]-N-(2-methylphenyl)pyridine-3-carboxamide],2000 to 10000
18,COc1cccc(C(=O)N[C@H]2C[C@H]3CC[C@@H](C2)N3c2ccc(C(=O)NCCN3CCCCC3)cn2)c1C [6-[3-endo-({[2-methyl-3-(methyloxy)phenyl]carbonyl}amino)-8-azabicyclo[3.2.1]oct-8-yl]-N-(2-piperidin-1-ylethyl)pyridine-3-carboxamide],1000 to 2000
